We go through 16 compounds from patent US4201783A, “Antidepressant substituted hexahydro benzopyrano [3,2-c] pyridines” (Lipha Lyonnaise Industrielle Pharmaceutique, priority 1977, dated 1980).

One data set relates to ptosis with reserpine. Put plainly: inhibition of reserpine ptosis in Swiss mice (B. Rubin et al.). The data set is classed as in vivo. To be noted: simultaneously with reserpine 5 mg/kg intraperitoneally, ptosis measured at 1, 1.5 and 2 hours; for ED50: Mus musculus, po, read-out: ED50 (dose inhibiting reserpine ptosis by an average of 50%); for ED50 (dose inhibiting reserpine ptosis by an average of 50%): oral. The method, then:
This mood-altering activity can be determined by standard, routine tests well known specialists. […] In Swiss mice, a compound was administered orally simultaneously with reserpine given interperitoneally at a dose of 5 mg/kg. Ptosis measured according to B. Rubin et al. (J. Pharmacol. Exp. […] (3-dimethylamino propylidene-5-dibenzo [a,d] 1,4-cycloheptadiene hydrochloride).

Another data set is described as follows: in vivo. To be noted: mouse, po.
The test system of another data set is Swiss mice. The settings on record: oral.
Data set [1] is described as follows: clinical test of the medication containing the active compound of Example 5 A. The data set is classed as in vivo, human. An excerpt: The following are observations recorded during a clinical test of the medication containing the active compound of Example 5 A.
[2] abbreviates: LD50, administered orally, Swiss mice.
Setting [3] is: Case No. 1, 5 mg daily for 30 days.
Where [4] appears, read: Case No. 2, 20 mg daily for 30 days.
Setting [5] is: Case No. 3, 10 mg daily for 20 days.
The mark [6] stands for this setting: Case No. 4, 25 mg daily for 45 days.
Where [7] appears, read: Case No. 5, 5 mg daily for 30 days.
Where [8] appears, read: Case No. 6, 25 mg daily for 30 days.

Where a name gives a salt, the structure may show the parent alone.

One may read the ED50 as the midpoint of the dose-response relation. In general, LD50 refers to the dose at which mortality reaches 50%. High values mean lower toxicity, low ones greater toxicity. On to `Cc1ccc2c(c1)C1CC(=O)NC3(CCN(C)CC13)O2` (centres unmarked) [Example 7, 4a-amino-28-dimethyl-1,2,3,4,4a,10a-hexahydro[10 H]benzopyrano[3,2-c]pyrid-10-ylacetic acid lactam], for which the 50% effective dose (ED50) with ptosis with reserpine stood at 3.5 mg/kg. Besides, in the data set “in vivo” (setting [2]), the LD50 was found to be 1200 mg/kg.
Regarding `COC(=O)N1CCC23NC(=O)CC(c4cc(Cl)ccc4O2)C3C1` (centres unmarked) [Example 28, 4a-amino-8-chloro-2-methoxycarbonyl-1,2,3,4,4a,10a-hexahydro[10 H]benzopyrano[3,2-c]pyrid-10-ylacetic acid lactam], the 50% effective dose (ED50) with ptosis with reserpine stood at 0.25 mg/kg. This compound displayed an LD50 in “in vivo” of 1100 mg/kg.
For the compound `CN1CCC23NC(=O)CC(c4cc(Br)ccc4O2)C3C1` (centres unmarked) [Example 6, 4a-amino-8-bromo-2-methyl-1,2,3,4,4a,10a-hexahydro[10 H]benzopyrano[3,2-c]pyrid-10-ylacetic acid lactam], in the data set on ptosis with reserpine, the ED50 stood at 0.1 mg/kg. Also, in “in vivo” (setting [2]), the LD50 came out at 720 mg/kg.
As for `CN1CCC23NC(=O)CC(c4ccccc4O2)C3C1` (single isomer, unassigned) [Example 1 B, 4a-amino-2-methyl-1,2,3,4,4a,10a-hexahydro [10 H] benzopyrano-[3,2-c]pyrid-10-yl acetic acid lactam], the “ED50 (dose inhibiting reserpine ptosis by an average of 50%)” value with ptosis with reserpine is 24 mg/kg. The “LD50, administered orally” value with Swiss mice came out at 600 mg/kg.
As to `CN1CCC23NC(=O)CC(c4cc(F)ccc4O2)C3C1` (centres unmarked) [Example 8, 4a-amino-8-fluoro-2-methyl-1,2,3,4,4a,10a-hexahydro[10 H]benzopyrano[3,2-c]pyrid-10-ylacetic acid lactam], the ED50 in the data set on ptosis with reserpine is 1 mg/kg. This compound came in with an LD50 in “in vivo” (setting [2]) of 1080 mg/kg.
Take `CCOC(=O)N1CCC23NC(=O)CC(c4cc(Cl)ccc4O2)C3C1` (centres unmarked) [Example 27, 4a-amino-8-chloro-2-ethoxycarbonyl-1,2,3,4,4a,10a-hexahydro[10 H]benzopyrano[3,2-c]pyrid-10-ylacetic acid lactam]: in the data set on ptosis with reserpine, the 50% effective dose (ED50) was 0.37 mg/kg. In the data set “in vivo”, this compound came in with an LD50 of more than 1600 mg/kg.
Taken in the same sequence, the figures for `CN(C)CCC=C1c2ccccc2CCc2ccccc21` [Amitriphthyline, 3-dimethylamino propylidene-5-dibenzo [a,d] 1,4-cycloheptadiene hydrochloride, reference compound] were 10 mg/kg and 150 mg/kg.
For the compound `CN1CCC23NC(=O)CC(c4cc(Cl)ccc4O2)C3C1` (single isomer, unassigned) [Example 5 B, 4a-amino-8-chloro-2-methyl-1,2,3,4,4a,10a-hexahydro[10 H]benzopyrano[3,2c]pyrid-10-ylacetic acid lactam], in the data set with ptosis with reserpine, the “ED50 (dose inhibiting reserpine ptosis by an average of 50%)” value came to 11 mg/kg.
For `CN(C)CCCN1c2ccccc2CCc2ccccc21` [Imipramine, N-(3-dimethylaminopropyl) iminodibenzyl hydrochloride, reference compound], in the data set with ptosis with reserpine, the ED50 worked out at 2.9 mg/kg.
On to `CN1CCC23NC(=O)CC(c4cc(Cl)ccc4O2)C3C1` (single isomer, unassigned) [Example 5 A, 4a-amino-8-chloro-2-methyl-1,2,3,4,4a,10a-hexahydro[10 H]benzopyrano[3,2c]pyrid-10-ylacetic acid lactam], for which, in the data set on ptosis with reserpine, the “ED50 (dose inhibiting reserpine ptosis by an average of 50%)” value was determined as 0.04 mg/kg. The Activity entry was “Weight gain. Improvement of mood and sociability” in data set [1] (Case No. 1, pre-senile depression, 5 mg daily for 30 days, with NOZINAN-SUREPTIL); “Weight gain. Improvement of mood and sleep. Reduced anxiety. Relief of hypochondriac complaints” in data set [1] (Case No. 2, post-neuroleptic depression with schizophrenia, 20 mg daily for 30 days, with NOZINAN-ARTANE-GARDENAL); “The patient was less preoccupied with their body. Decrease of compulsive washing. Improvement of social behavior” in data set [1] (Case No. 3, serious hypochondriac depressive syndrome, 10 mg daily for 20 days, with MEPRONIZINE); “Improvement of mood. Less pessimistic attitude. Less frequent crying. Less pronounced feeling of guilt” in data set [1] (Case No. 4, melancholic depressive relapse, 25 mg daily for 45 days, with NOZINAN 25 mg); “Improvement of mood. Less frequent crying. Improved appetite” in data set [1] (Case No. 5, depressive syndrome in an alcoholic of the melancholic type, 5 mg daily for 30 days, with vitamins, NOZINAN (50 mg), ARTANE 5); “Decrease of hypochondriac complaints. Patient less irritable and apprehensive” in data set [1] (Case No. 6, hypochondriac delirium with anxiety, 25 mg daily for 30 days, with ARTANE 10 mg […]). The “Tolerance, biological” value in data set [1] (setting [3]), in data set [1] (setting [4]), in data set [1] (setting [5]), in data set [1] (setting [6]), in data set [1] (setting [7]) and in data set [1] (setting [8]) was “N.A.D” throughout. Besides, the “Tolerance, clinical” value was “N.A.D” in data set [1] (setting [3]); “N.A.D” in data set [1] (setting [4]); “N.A.D” in data set [1] (setting [5]); “N.A.D” in data set [1] (setting [6]); “slight dizziness and nausea” in data set [1] (setting [7]); “slight vertigo” in data set [1] (setting [8]).
`CN1CCC23Oc4ccc(Cl)cc4C(CC(=O)N2C)C3C1` (centres unmarked) [Example 36, 8-chloro-2-methyl-4a-methylamino-1,2,3,4,4a,10a-hexahydro[10 H]benzopyrano[3,2-c]pyrid-10-ylacetic acid lactam]: in the data set on ptosis with reserpine, the ED50 stood at 0.7 mg/kg. This compound registered an LD50 in the data set “in vivo” (setting [2]) of 600 mg/kg.
Taken in the same sequence, the figures for `CN1CCC23NC(=O)CC(c4c(ccc5ccccc45)O2)C3C1` (centres unmarked) [Example 10, 7a-amino-10-methyl-7a,8,9,10,11,11a-hexahydro[12 H]benzo[f]benzopyrano[3,2-c]pyrid-12-ylacetic acid lactam] were 1.8 mg/kg and 600 mg/kg.
Taken in the same sequence, the figures for `CN1CCC23NC(=O)CC(c4cc([N+](=O)[O-])ccc4O2)C3C1` (centres unmarked) [Example 15, 4a-amino-8-nitro-2-methyl-1,2,3,4,4a,10a-hexahydro[10 H]benzopyrano[3,2-c]pyrid-10-ylacetic acid lactam] were 0.6 mg/kg and 2470 mg/kg.
For the compound `CN1CCC23NC(=O)CC(c4ccccc4O2)C3C1` (single isomer, unassigned) [Example 1 A, 4a-amino-2-methyl-1,2,3,4,4a,10a-hexahydro [10 H] benzopyrano-[3,2-c]pyrid-10-yl acetic acid lactam], in the data set with ptosis with reserpine, the “ED50 (dose inhibiting reserpine ptosis by an average of 50%)” value was 6 mg/kg. In the data set with Swiss mice, the “LD50, administered orally” value is reported as 2,700 mg/kg.
`COc1ccc2c(c1)C1CC(=O)NC3(CCN(C)CC13)O2` (single isomer, unassigned) [Example 18, 4a-amino-8-methoxy-2-methyl-1,2,3,4,4a,10a-hexahydro[10 H]benzopyrano[3,2-c]pyrid-10-ylacetic acid lactam]: the ED50 with ptosis with reserpine worked out at 0.67 mg/kg. Besides, the 50% lethal dose (LD50) in “in vivo” (setting [2]) came to 1200 mg/kg.
Taken in the same sequence, the figures for `CC(=O)N1CCC23NC(=O)CC(c4ccccc4O2)C3C1` (centres unmarked) [Example 9, 4a-amino-2-acetyl-1,2,3,4,4a,10a-hexahydro[10 H]benzopyrano[3,2-c]pyrid-10-ylacetic acid lactam] were 5 mg/kg and more than 3200 mg/kg.
